Assay [1] concerns DC-3F, K-562 and Lewis Lung Carcinoma cells. Kind of assay: In vitro electroporation, MTT viability assay. The format is cell-based, Chinese hamster, human, murine. Particulars: electroporated; data not shown. On the procedure: Three cell lines are used for in vitro experiments, DC-3F, a transformed Chinese hamster lung fibroblast cell line; K-562, a human leukemia cell line; and Lewis Lung Carcinoma, a murine lung carcinoma cell line. DC-3F cells were tested for mycoplasma in January 2011, K-562 cells were tested for mycoplasma in 2008 prior to freezing and thawing just before experiments were performed, and Lewis Lung cells were tested by rapid MAP27 panel (Taconic, Hudson N.Y.) in July 2011 without signs of infection. Cells are maintained in RPMI 1640 culture medium (GIBCO™, Life Technologies, Carlsbad, Calif.) with 10% fetal calf serum (GIBCO™, Life Technologies, Carlsbad, Calif.), penicillin and streptomycin at 37° C. and 5% C02. After harvesting, cells are washed and diluted in HEPES buffer containing 10 mM HEPES (Lonza, Basel, Switzerland), 250 mM sucrose and 1 mM MgCl2 in sterile water. 270 μl cell suspension (6.1×10^6 cells/ml) and 30 μl CaCl2, or in the case of controls, HEPES buffer, are electroporated in 4 mm wide cuvettes with aluminium electrodes (Molecular BioProducts, Inc., San Diego, Calif.). Cooled cells (8° C.) are exposed to 8 pulses of 1.2 kV/cm with pulse duration of 99 μs (DC-3F and K562 cells) or 8 pulses of 1.4 kV/cm with pulse duration of 99 μs (Lewis Lung Carcinoma) using a BTX® T820 square wave electroporator (BTX®, Harvard Apparatus, Holliston, Mass.). The electroporation parameters are chosen after optimization to obtain high permabilisation and cell survival. After 20 min at 37° C. and 5% CO2 cells are diluted in RPMI 1640 culture medium with 10% fetal calf serum and penicillin-streptomycin and seeded in 96-well plates at a concentration of 3.1×10^4 cells/100 μl.
Difference between electroporated and non-electroporated cells in identical buffer is assessed using two-way analysis of variance (ANOVA) with post least-squares-means test with Bonferroni correction for multiple comparisons.
For orientation: Tetrazolium assays rely on reduction of a dye to a coloured formazan, in cell work by metabolically active cells.

The test system of another assay is DC-3F cells. Briefly: Calcium electroporation with two calcium sources, MTT assay. The class given is cell-based, Chinese hamster. The following applies: 1 mM, 8 pulses, 0-1.6 kV/cm; MTT 1 day after treatment. How it is done: DC-3F cells were electroporated as described in example 1 with 1 mM calcium chloride (prepared by SAD, Denmark) or 1 mM calcium glubionate (Sandoz, Holzkirchen, Germany). The calcium concentration was chosen based on the experiment described in example 1 where 1 mM calcium is the lowest concentration inducing high cell death. The cells were electroporated with 8 pulses of […] at 1 Hz and increasing electric field (0-1.6 kV/cm). After 20 min at 37° C. and 5% CO2 cells were diluted in RPMI 1640 culture medium with 10% fetal calf serum and penicillin-streptomycin and seeded in 96-well plates at a concentration of 3.1×10^4 cells/100 μl.

In the case of bleomycin, the “concentration giving a decrease in viability similar to calcium electroporation” value in assay [1] was no less than 0.1 µM.
Take `O.O=C([O-])[C@H](O)[C@@H](O)[C@H](O)[C@H](O)CO.O=C([O-])[C@H](O)[C@@H](O)[C@H](O[C@@H]1O[C@H](CO)[C@H](O)[C@H](O)[C@H]1O)[C@H](O)CO.[Ca+2]` [calcium glubionate]: the “effect of calcium electroporation on cell viability, calcium chloride versus calcium glubionate” value with DC-3F cells was “no difference”.

For the origin of these results see patent US9943599B2, “Therapeutic applications of calcium electroporation to effectively induce tumor necrosis” (Herlev Hospital, priority 2011, dated 2018).
